These are literature values, as cited in patent US10058532B2, “Methods of preventing progression to type 2 diabetes mellitus” (Vivus, Inc., priority 2013, dated 2018).

Like-named read-outs stand apart in the source and are kept apart here.

Regarding `CC1(C)O[C@@H]2[C@@H](CO[C@@]3(COS(N)(=O)=O)OC(C)(C)O[C@@H]23)O1` [Topiramate, 2,3:4,5-di-O-isopropylidene-β-D-fructopyranose sulfamate], the solubility entry reads like this: (methanol and acetone) “freely soluble”; (pH 1 to pH 8 aqueous solutions) “slightly soluble”; (pH 9 to pH 12 aqueous solutions) “sparingly soluble”.
